Reference: patent publication US20080271210A1, “Oryza Sativa Lectin-Like Receptor Kinase 1 (Oslrk1), a Gene Involved in Plant Development” (Temasek Life Sciences Laboratory National University of …, priority 2004, published 2008)

Tests used:
Format in all cases: in vivo, Oryza sativa
[1] = system: WT seeds and seedlings; test: Germination and growth of WT seeds in galactose/mannose containing media
Source text: (§1) The altered expression of the Oslrk1 by different sugars described above led us to study the response of the mutant to these monosaccharides and sucrose. The WT and the mutant seeds were germinated and grown in Gal, Man, Glu, Fm along with Suc at different concentrations (ranging from 0.1% to 1%) and Suc alone containing medium as a control. The following parameters were taken into account during observation: the shoot length, the number and the length of adventitious roots and the germination rate. […] Out of these three sugars tested, Man was selected as an example as its inhibitory effect was similar in seeds and seedlings of WT and mutant as shown in FIGS. 10A and B. The seed germination was severely affected by Man.
(§2) At 1.0% of the Gal, the shoot length decreased by half in the mutant, whereas only by 15% in the WT seedlings. […] Apart from this, the germination rate of the WT seeds dropped to 85% whereas in the mutant it dropped to 30%.
(§3) Germination of WT and mutant seeds in galactose/mannose containing media. WT and mutant seeds were germinated separately on MS medium containing 0.8% agar and 1% sucrose. In addition, D(+)galactose/D(+/−)mannose was added in different concentrations (0.1, 0.2, 0.5, and 1.0%) along with a control (MS with 1% of sucrose). At 14 days after germination, the observations for adventitious root number and length (cm), shoot length (cm) and germination rate (%) were recorded.

[2] = system: Oslrk1 mutant seeds and seedlings; test: Germination and growth of Oslrk1 mutant seeds in galactose/mannose containing media; details: for behavior of the mutant compared with the WT upon treatment: sugar 0.1% to 1% along with Suc
Source text: as §1, §2, §3

[3] = system: Oslrk11; test: RT-PCR of Oslrks in treated 2 week-old seedlings; details: treated vs control
Method: (§4) RT-PCRs were carried out on RNA samples isolated from 2 week-old seedlings treated with various sugar (FIG. 13), hormone (FIG. 14), and abiotic stresses (FIG. 15) using primers designated to either 3′ or 5′ Untranslated Regions (UTRs) of the 15 Oslrks found in Table 2. For each Oslrk two lanes in the gel are found, the first lane is the control and the second one treatment samples.
(§5) Table 3 provides a summary of all the above referenced data on the Oslrks, showing the RT-PCR results of various treatments, including sugar, hormone and abiotic stress and northern blot results on various tissues of rice plant grown in normal conditions, and the ESTs, or cDNAs availability in the database. In the table, “I” represents induced expression and “R” represents repressed expression.

[4] = system: Oslrk4; test: RT-PCR of Oslrks in treated 2 week-old seedlings; details: treated vs control
Method: as §4, §5

[5] = system: Oslrk5; test: RT-PCR of Oslrks in treated 2 week-old seedlings; details: treated vs control
Method: as §4, §5

[6] = system: Oslrk8; test: RT-PCR of Oslrks in treated 2 week-old seedlings; details: treated vs control
Method: as §4, §5

[7] = system: Oslrk1 gene; test: Northern-blot of Oslrk1 transcript in WT seedlings treated with hormones and SA; details: 24 hours, WT seedlings, 3' UTR probe, vs untreated
Source text: Differential Regulation of Oslrk1 Gene Expression by Hormones. Receptor-like kinases were postulated to be involved in signal transduction events as they perceive a signal via a ligand-binding extracellular domain and transmit it through the serine/threonine kinase domain into the cytosol (Shiu and Bleecker, 2001). In order to know possible factors influencing the Oslrk1 gene regulation, we analyzed promoter of the Oslrk1 (1.5 kb) for the presence of cis-acting elements using the program PlantCARE (Lescot et al., 2002). Three TGAGC motifs observed in MeJA inducible genes were found in promoter of the Oslrk1 at the positions −186, −657 and −1190. Apart from these, three GA3 inducible motifs (P-box-CCTTxt) −101, −206 and −740 bp upstream of the Oslrk1 ORF were located. In addition, five salicylic acid inducible motifs (TCA-elementcAGAAa/ga) at the positions of −321, −601, −604, −855 and −1135 were detected. The presence of MeJA, GA and SA responsive cis-elements in the Oslrk1 promoter indicated possible regulatory roles of these factors. The promoter analysis led us to study the effect of different hormones and compounds on the Oslrk1 transcription. The WT seeds were germinated for […] then seedlings were transferred to the medium containing one of the following chemicals: […], MeJA, GA3 or ABA at concentration 100 uM and SA (5 mM) for 24 hours (Materials and Methods). The total RNA isolated from the untreated and treated seedlings were used in Northern-blot hybridization using 3′ UTR of the Oslrk1 gene as a probe. The treatment with GA3 and SA repressed the Oslrk1 gene expression (FIG. 8A) by 2.5 and 3.3 times respectively. […] In order to confirm the level of induction of the Oslrk1 gene by MeJA over time, in another series of experiments, a time course was performed after hormone treatment. Seven day old seedlings were sprayed with 100 uM of MeJA solution and they were harvested in 1, 2, 4, 6, 8, and 12 hours.
RNA Isolation and Northern-blot Analysis. RNA was isolated from different organs of rice plant at different developmental stages (roots of 10-14 days old seedlings and 2 months old plants, 10-14 days old seedlings, young and mature leaves, panicles at the flowering stage and calli) using a RNeasy Plant mini kit (Qiagen,). The RNA (10 ug) was fractionated on a 1.2% denaturating formaldehyde agarose gel and transferred onto a Hybond-N^+ membrane (Amersham). The bolts were hybridized with dogoxigenin (DIG)-labeled probes in DIG Easy Hyb solution (Roche) at 50° C. After hybridization, membranes were washed twice with 2×SSC and 0.1% SDS for 15 min, then twice with 0.5×SSC and 0.1% SDS for 15 min at 68° C. Detection was carried out according to manufacturer using DIG Wash and Block Buffer set and chemiluminescent substrate CDP Star™ (Roche). DIG-labelled probe corresponded to 3′UTR and lectin domain of Oslrk1 was used. For the control of RNA quantity, DIG-probe corresponding to rice Actin1 gene was synthesized using the following primers: […]
The RT-PCRs and Northern blots were repeated at least thrice and similar results were obtained. The quantification of the intensity of the hybridization signals was performed using Quantity ONE 4.5.0 software in Gel doc XR documentation system (Bio-Rad Laboratories, Inc., USA). The level of actual expression was calculated as a ratio of intensity of specific signal (Oslrk1 3′UTR probe) to the intensity of signal of positive control (rice Act1).
Treatment of WT Seedlings with Hormones and Sugars. Two week old WT seedlings were transferred to MS medium containing 100 μM of different hormones, such as Indole 3-Acetic Acid (IAA), Abscisic acid (ABA), Methyl Jasmonate (MeJA), or Gibbrellic Acid (GA3) and 5 mM of Salicylic Acid (SA), and were grown for 24 hours under normal day/light conditions. Total RNA was extracted from root of the seedlings and whole seedlings. […]

[8] = system: WT seedlings; test: Growth of WT seedlings in MeJA or GA3 containing medium; details: GA3 10 uM, two weeks in MS agar
Method: (§6) In order to study the effect of phytohormones on the Oslrk1 mutant, seeds were grown in medium containing different concentrations of either MeJA ([…]) (FIG. 9A) or GA3 (0.5, 1, 5 and 10 μm) (data not shown) along with WT as a control The number and length of adventitious roots, number of lateral roots and shoot length were measured. […] In the WT seedlings the number of the lateral roots was increased at 5 uM and decreased by at 10 uM.
(§7) The adventitious root length of WT increased by 50% at 10 uM concentration of GA3, but it was not altered in the mutant (data not shown).
(§8) Plant Growth Conditions. Surface sterilized rice seeds were germinated and grown in cell culture containers (Phytatray II Sigma cell culture, USA) on 0.8% agar MS medium (Murashige and Skoog medium, Sigma., St. Louis Mo., USA) containing 1% of Suc for 2 weeks under 16/8 hours photoperiod. All chemicals used for the various treatments were purchased from Sigma.
(§9) Growth of WT and Mutant Seedlings in MeJA Containing Medium WT and mutant seeds were germinated and grown in MS medium (1% Suc) containing different concentrations of MeJA (1 μM, 5 μM, and 10 μM) for two weeks. No MeJA was added in the control. The number and length (cm) of adventitious roots as well as the number of lateral roots were measured.

[9] = system: Oslrk1 mutant seedlings; test: Growth of Oslrk1 mutant seedlings in MeJA or GA3 containing medium; details: GA3 10 uM, two weeks in MS agar
Method: as §6, §7, §8, §9

[10] = system: Oslrk1 gene; test: Northern-blot of Oslrk1 transcript in WT seedlings treated with sugars; details: sugars 175 mM, 48 hours, Mannitol as osmotic control
Method: Lectins are known as carbohydrate-binding proteins that specifically recognize diverse sugar structures (Vijayan and Chandra, 1999). […] Five different sugars: glucose (Glu), sucrose (Suc), fructose (Fm), Gal and Man were used for this study along with Mannitol as an osmotic control (Methods). Northern-blot hybridizations were carried out on the total RNA isolated from treated seedlings.
RNA Isolation and Northern-blot Analysis. RNA was isolated from different organs of rice plant at different developmental stages (roots of 10-14 days old seedlings and 2 months old plants, 10-14 days old seedlings, young and mature leaves, panicles at the flowering stage and calli) using a RNeasy Plant mini kit (Qiagen,). […] For the control of RNA quantity, DIG-probe corresponding to rice Actin1 gene was synthesized using the following primers: […]
The RT-PCRs and Northern blots were repeated at least thrice and similar results were obtained. The quantification of the intensity of the hybridization signals was performed using Quantity ONE 4.5.0 software in Gel doc XR documentation system (Bio-Rad Laboratories, Inc., USA). The level of actual expression was calculated as a ratio of intensity of specific signal (Oslrk1 3′UTR probe) to the intensity of signal of positive control (rice Act1). […]

[11] = system: Oslrk10; test: RT-PCR of Oslrks in treated 2 week-old seedlings; details: Rt, treated vs control
Method: as §4, §5

[12] = system: Oslrk2; test: RT-PCR of Oslrks in treated 2 week-old seedlings; details: treated vs control
Method: as §4, §5

Structure (SMILES): O=C[C@@H](O)[C@@H](O)[C@H](O)[C@H](O)CO (racemic) [Man, mannose]
- effect on any parameters tested (shoot length, number and length of adventitious roots, germination rate) ([1]; mannose 0.1%): No obvious effect
- seed germination rate ([1]; mannose 0.2%): 35%
- seed germination ([1]; mannose 0.5%): did not germinate
- effect on any parameters tested (shoot length, number and length of adventitious roots, germination rate) ([2]; Oslrk1 mutant, mannose 0.1%): No obvious effect
- seed germination rate ([2]; Oslrk1 mutant, mannose 0.2%): 35%
- seed germination ([2]; Oslrk1 mutant, mannose 0.5%): did not germinate
- behavior of the mutant compared with the WT upon treatment [2]: No significant differences
- Oslrk11 expression by RT-PCR, Rt [3]: I
- Oslrk4 expression by RT-PCR, Rt [4]: I
- Oslrk5 expression by RT-PCR, Rt [5]: I
- Oslrk5 expression by RT-PCR, Sh [5]: R
- Oslrk8 expression by RT-PCR, Rt [6]: I

Structure (SMILES): O=C(CO)[C@@H](O)[C@H](O)[C@H](O)CO [Fm, fructose]
- behavior of the mutant compared with the WT upon treatment [2]: No significant differences

Structure (SMILES): C=C1C[C@]23C[C@@]1(O)CC[C@H]2[C@@]12C=C[C@H](O)[C@@](C)(C(=O)O1)[C@H]2[C@@H]3C(=O)O [GA3, Gibbrellic Acid]
- Oslrk1 gene expression repressed by ([7]; 100 uM): 2.5 times
- adventitious root length increased by [8]: 50%
- adventitious root length [9]: not altered
- Oslrk11 expression by RT-PCR, Rt [3]: I
- Oslrk11 expression by RT-PCR, Sh ([3]; Sh): R
- Oslrk4 expression by RT-PCR, Rt [4]: I
- Oslrk5 expression by RT-PCR, Rt [5]: I
- Oslrk8 expression by RT-PCR, Rt [6]: I

Structure (SMILES): O=C[C@H](O)[C@@H](O)[C@H](O)[C@H](O)CO [Glu, glucose]
- behavior of the mutant compared with the WT upon treatment [2]: No significant differences
- Oslrk4 expression by RT-PCR, Rt [4]: I
- Oslrk4 expression by RT-PCR, Sh ([4]; Sh): R
- Oslrk8 expression by RT-PCR, Rt [6]: I
- Oslrk8 expression by RT-PCR, Sh ([6]; Sh): R

Structure (SMILES): OC[C@@H](O)[C@@H](O)[C@H](O)[C@H](O)CO [Mannitol]
- Oslrk1 expression in response to sugars [10]: not altered

Structure (SMILES): O=C(O)c1ccccc1O [SA, Salicylic Acid]
- Oslrk1 gene expression repressed by ([7]; 5 mM): 3.3 times
- Oslrk10 expression by RT-PCR, Rt [11]: I
- Oslrk11 expression by RT-PCR, Rt [3]: I
- Oslrk4 expression by RT-PCR, Rt [4]: I
- Oslrk5 expression by RT-PCR, Rt [5]: I
- Oslrk8 expression by RT-PCR, Rt [6]: I

Structure (SMILES): OC[C@H]1O[C@@](CO)(O[C@H]2O[C@H](CO)[C@@H](O)[C@H](O)[C@H]2O)[C@@H](O)[C@@H]1O [Suc, sucrose]
- Oslrk11 expression by RT-PCR, Rt [3]: I
- Oslrk2 expression by RT-PCR, Rt ([12]; Rt): I
- Oslrk2 expression by RT-PCR, Sh ([12]; Sh): R
- Oslrk5 expression by RT-PCR, Rt [5]: I
- Oslrk5 expression by RT-PCR, Sh [5]: I
